Consider four compounds from the NIST ThermoML archive (doi:10.1016/j.tca.2016.11.017).

± gives the expanded uncertainty stated by the source.

The conditions of series [1]: for Normal melting temperature: DTA; for mass density: 103 K, 101.33 kPa, X-ray diffraction.
Series [2] is described as follows: Molar enthalpy of transition or fusion. As to conditions: DSC.

For `COC(C(=O)O)c1ccccc1` (configuration not stated) [2-methoxy-2-phenylacetic acid], the Normal melting temperature in series [1] (Crystal) amounted to 70.60 ± 0.5 °C. Moreover, in series [2] (Crystal), the “Molar enthalpy of transition or fusion” value stood at 25.1 ± 5 kJ/mol.
In the same order, the values of `CO[C@H](C(=O)[O-])c1ccccc1.C[C@@H]([NH3+])C1CCCCC1` are 187.40 ± 0.5 °C and 45.6 ± 9.2 kJ/mol.
For the compound `CO[C@H](C(=O)O)c1ccccc1` [(S)-2-methoxy-2-phenylacetic acid], in series [1] (Crystal), the mass density is on record as 1311 ± 7 kg/m3 and the Normal melting temperature amounted to 69.30 ± 0.5 °C. Moreover, in series [2] (Crystal), the “Molar enthalpy of transition or fusion” value was determined as 18.9 ± 3.8 kJ/mol.
Turning to `CO[C@H](C(=O)[O-])c1ccccc1.C[C@H]([NH3+])C1CCCCC1`, the mass density in series [1] (Crystal) was determined as 1149 ± 6 kg/m3. For the same compound, the Normal melting temperature in series [1] (Crystal 1) came to 162.90 ± 0.5 °C; in series [1] (Crystal 2) it was 166.30 ± 0.5 °C. The “Molar enthalpy of transition or fusion” value in series [2] (Crystal 1) came to 30.6 ± 6.2 kJ/mol; in series [2] (Crystal 2), 38.3 ± 7.7 kJ/mol.

By mass density is commonly meant the mass of a sample divided by its volume.
